The CheMixHub ionic liquid set
± gives the uncertainty stated by the source.

Test: xn = mol fraction of the nth substance listed
Settings: 101.3 kPa

COC(=O)OC + CCCC[n+]1ccn(C)c1.O=S(=O)([N-]S(=O)(=O)C(F)(F)F)C(F)(F)F
viscosity [mPa·s]
Settings	288.15 K	293.15 K	298.15 K	303.15 K	308.15 K	313.15 K
x2 = 0	0.668 ± 0.015	0.628 ± 0.014	0.588 ± 0.013	0.553 ± 0.012	0.524 ± 0.011	–
x2 = 0.003644	0.699 ± 0.015	0.653 ± 0.014	0.611 ± 0.013	0.575 ± 0.013	0.541 ± 0.012	0.511 ± 0.011
x2 = 0.004269	0.706 ± 0.015	0.659 ± 0.014	0.616 ± 0.013	0.58 ± 0.013	0.545 ± 0.012	0.515 ± 0.011
x2 = 0.005082	0.715 ± 0.016	0.667 ± 0.015	0.624 ± 0.014	0.586 ± 0.013	0.551 ± 0.012	0.52 ± 0.011
x2 = 0.005901	0.722 ± 0.016	0.674 ± 0.015	0.631 ± 0.014	0.593 ± 0.013	0.557 ± 0.012	0.525 ± 0.011
x2 = 0.00751	0.741 ± 0.016	0.69 ± 0.015	0.646 ± 0.014	0.606 ± 0.013	0.57 ± 0.012	0.537 ± 0.012
x2 = 0.008724	0.746 ± 0.016	0.695 ± 0.015	0.651 ± 0.014	0.61 ± 0.013	0.575 ± 0.013	0.541 ± 0.012
x2 = 0.009626	0.749 ± 0.016	0.7 ± 0.015	0.657 ± 0.014	0.617 ± 0.013	0.583 ± 0.013	0.549 ± 0.012
x2 = 0.01106	0.781 ± 0.017	0.727 ± 0.016	0.678 ± 0.015	0.636 ± 0.014	0.597 ± 0.013	0.562 ± 0.012
x2 = 0.012	0.792 ± 0.017	0.737 ± 0.016	0.687 ± 0.015	0.644 ± 0.014	0.605 ± 0.013	0.57 ± 0.012
x2 = 0.01269	0.801 ± 0.017	0.744 ± 0.016	0.695 ± 0.015	0.651 ± 0.014	0.61 ± 0.013	0.576 ± 0.013
x2 = 0.01439	0.817 ± 0.018	0.759 ± 0.017	0.708 ± 0.015	0.663 ± 0.014	0.621 ± 0.014	0.586 ± 0.013
x2 = 0.01534	0.827 ± 0.018	0.768 ± 0.017	0.717 ± 0.016	0.671 ± 0.015	0.629 ± 0.014	0.592 ± 0.013
x2 = 0.01537	0.827 ± 0.018	0.768 ± 0.017	0.717 ± 0.016	0.671 ± 0.015	0.629 ± 0.014	0.592 ± 0.013
x2 = 0.01726	0.847 ± 0.019	0.786 ± 0.017	0.734 ± 0.016	0.686 ± 0.015	0.643 ± 0.014	0.604 ± 0.013
x2 = 0.01986	0.874 ± 0.019	0.811 ± 0.018	0.755 ± 0.016	0.706 ± 0.015	0.662 ± 0.014	0.621 ± 0.014
x2 = 0.02243	0.902 ± 0.02	0.836 ± 0.018	0.778 ± 0.017	0.728 ± 0.016	0.681 ± 0.015	0.641 ± 0.014
x2 = 0.02369	0.914 ± 0.02	0.847 ± 0.019	0.788 ± 0.017	0.736 ± 0.016	0.689 ± 0.015	0.648 ± 0.014
x2 = 0.02616	0.937 ± 0.02	0.869 ± 0.019	0.808 ± 0.018	0.754 ± 0.016	0.706 ± 0.015	0.663 ± 0.014
x2 = 0.02694	0.945 ± 0.021	0.876 ± 0.019	0.814 ± 0.018	0.759 ± 0.017	0.711 ± 0.016	0.668 ± 0.015
x2 = 0.02906	0.968 ± 0.021	0.897 ± 0.02	0.834 ± 0.018	0.778 ± 0.017	0.728 ± 0.016	0.683 ± 0.015
x2 = 0.03392	1.016 ± 0.022	0.94 ± 0.021	0.873 ± 0.019	0.814 ± 0.018	0.76 ± 0.017	0.714 ± 0.016
x2 = 0.03978	1.072 ± 0.023	0.991 ± 0.022	0.921 ± 0.02	0.857 ± 0.019	0.802 ± 0.018	0.751 ± 0.016
x2 = 0.04295	1.102 ± 0.024	1.019 ± 0.022	0.945 ± 0.021	0.88 ± 0.019	0.822 ± 0.018	0.77 ± 0.017
x2 = 0.04638	1.134 ± 0.025	1.048 ± 0.023	0.971 ± 0.021	0.904 ± 0.02	0.845 ± 0.018	0.791 ± 0.017
